Assay results from article PMC9143003, “Neutrophil Immunomodulatory Activity of Farnesene, a Component of Artemisia dracunculus Essential Oils” (Pharmaceuticals, 2022).
Like-named read-outs stand apart in the source and are kept apart here.

Key:
human neutrophils [1] = assay: Ca2+ mobilization assay, direct activation of [Ca2+]i; type: cell-based; conditions: pure compounds; for EC50: human neutrophils, mean ± SD of three experiments, read-out: Activation of [Ca^2+]i EC50; for Effect on human neutrophil Ca^2+ flux (in words): direct effect
From the text: (§1) We obtained human neutrophils using blood collected from healthy donors. Blood collection was approved by the Institutional Review Board at Montana State University (Protocol #MQ041017). Neutrophils were isolated as described previously. The isolated neutrophils were resuspended in HBSS^–. Neutrophil preparations were routinely >95% pure and >98% viable, as determined by light microscopy and trypan blue exclusion, respectively.
(§2) Changes in intracellular Ca^2+ concentrations ([Ca^2+]i) were monitored with a FlexStation 3 (Molecular Devices, Sunnyvale, CA, USA). For these assays, neutrophils were loaded with 1.25 μg/mL Fluo-4AM and incubated in the dark at 37 °C for 30 min. The cells were then washed with HBSS^-. The dye-loaded cells were resuspended in HBSS^+ and pipetted into the wells of black microtiter plates at 2 × 10^5 cells/well. To measure the direct effects of samples on [Ca^2+]i, the test samples were added to the wells (final concentration of DMSO was 1%), and fluorescence was monitored (λex = 485 nm, λem = 538 nm). Changes in fluorescence were monitored every 5 s at room temperature for 240 s. To evaluate the inhibitory effects of the test samples, the samples were added to the wells and incubated for 10 min, with the subsequent addition of 5 nM fMLF, 5 nM WKYMVM, or 25 nM IL-8. Responses were normalized to the response induced by control 5 nM fMLF, 5 nM WKYMVM, or 25 nM IL-8 alone without pretreatment. These responses were assigned as 100%. To calculate median effective concentrations (EC50 or IC50), we used curve fitting (at least five or six points) and nonlinear regression analysis of the dose–response curves. Curve fitting was performed with Prism 9 (GraphPad Software, Inc., San Diego, CA, USA).

[2] = tested on: fMLF-stimulated human neutrophils (FPR1 agonist fMLF); assay: Inhibition of fMLF-induced [Ca2+]i; type: cell-based; conditions: pure compounds, 10 min pretreatment, 5 nM fMLF, read-out: Inhibition of [Ca^2+]i fMLF-Induced IC50
From the text: as §1, §2

[3] = tested on: WKYMVM-stimulated human neutrophils (FPR2 agonist WKYMVM); assay: Inhibition of WKYMVM-induced [Ca2+]i; type: cell-based; conditions: pure compounds, 10 min pretreatment, 5 nM WKYMVM, read-out: Inhibition of [Ca^2+]i WKYMVM-Induced IC50
From the text: as §1, §2

human neutrophils [4] = assay: Cytotoxicity assay (CellTiter-Glo), neutrophils; conditions: pure compounds, 90 min incubation, no cytotoxicity = IC50 > 55 µM
Method: We analyze cytotoxicity in human neutrophils or THP-1 monocytic cells. Cytotoxicity was analyzed using a CellTiter-Glo Luminescent Cell Viability Assay Kit (Promega, Madison, WI, USA). Briefly, the cells were incubated (10^4 cells/well) with the indicated concentrations of essential oil or compound for 90 min (for neutrophils) or 24 h (for THP-1 cells) at 37 °C/5% CO2. After incubation, we added substrate. The samples were analyzed using a Fluoroscan Ascent FL microplate reader.

human neutrophils [5] = tested on: human neutrophils; set-up: method as in PMID 27586050, PMID 25959257; conditions: previous analysis; cited from earlier work
[6] = tested on: human THP-1 monocytic cells; assay: Cytotoxicity assay (CellTiter-Glo), THP-1; type: cell-based
Method: Human THP-1 monocytic cells obtained from ATCC (Manassas, VA, USA) were cultured in RPMI 1640 medium (Mediatech Inc., Herndon, VA, USA) supplemented with 10% (v/v) FBS, 100 μg/mL streptomycin, and 100 U/mL penicillin. […] After incubation, we added substrate.

human neutrophils [7] = assay: Chemotaxis assay toward fMLF (ChemoTx chambers); type: cell-based; conditions: pure compounds, 30 min pretreatment, 1 nM fMLF; for IC50: read-out: Inhibition of fMLF-induced neutrophil chemotaxis IC50
From the text: as §1
To evaluate effects of samples on neutrophil migration, we resuspended neutrophils in HBSS^+ containing 2% (v/v) heat-inactivated FBS (2 × 10^6 cells/mL). We analyzed chemotaxis using 96-well ChemoTx chambers (Neuroprobe, Gaithersburg, MD). The neutrophils were first preincubated with the indicated concentrations of test samples at room temperature for 30 min. The pretreated cells were then pipetted into the chamber upper wells (4 × 10^4 cells/well). The lower wells contained 30 µL of HBSS^+ with 2% (v/v) heat-inactivated FBS, the indicated test samples or control 1% DMSO, and 1 nM fMLF as the chemoattractant. Three lower wells were reserved for background controls (DMSO treated cells in the upper wells and DMSO without fMLF in the lower wells). We allowed the cells to migrate through the polycarbonate membrane filter for 60 min at 37 °C/5% CO2. We determined the number of migrated cells by measuring ATP in lysates of transmigrated cells and comparing this to a standard curve obtained with known neutrophil numbers, as described previously. Calculation of median effective concentrations (IC50) was performed by nonlinear regression analysis of the dose-response curves.

FPR1 = tested on: FPR1; set-up: method as in PMID 16972170, PMID 11211928, PMID 11853704; conditions: cited from earlier work
[8] = tested on: IL-8-stimulated human neutrophils; assay: Inhibition of IL-8-induced [Ca2+]i; type: cell-based; conditions: 10 min pretreatment, 25 nM human IL-8; read-out: Inhibition of IL-8 induced neutrophil [Ca^2+]i IC50
From the text: as §1
as §2, with “Responses were normalized to the response induced by control 5 nM fMLF, 5 nM WKYMVM, or 25 nM IL-8 alone without pretreatment. These responses were assigned as 100%. To calculate median effective concentrations (EC50 or IC50), we used curve fitting (at least five or six points) and nonlinear regression analysis of the dose–response curves. Curve fitting was performed with Prism 9 (GraphPad Software, Inc., San Diego, CA, USA).” left out

With `CC1(C)[C@H]2CC[C@]1(C)C(=O)C2` [(−)-Camphor] the EC50 (human neutrophils [1]; Neutrophil) was over 55 µM, the “Effect on human neutrophil Ca^2+ flux (in words)” value (human neutrophils [1]) was “did not affect human neutrophil Ca^2+ flux” and the IC50 ([2]; Homo sapiens, Neutrophil) was over 55 µM. The IC50 ([3]; Homo sapiens, Neutrophil) was over 55 µM and the Cytotoxicity (human neutrophils [4]) was “Nontoxic”.
For `Cc1ccc(C(C)C)cc1` [p-cymene], the “Effect on human neutrophil [Ca^2+]i (in words)” value (shortened to “Effect … [Ca^2+]i (in words)”) (human neutrophils [5]) is given as “no effect”.
For `CC1=CC(=O)C(C(C)C)CC1` (centres unmarked) [Piperitone], the EC50 (human neutrophils [1]; Neutrophil) was over 55 µM, the “Effect on human neutrophil Ca^2+ flux (in words)” value (human neutrophils [1]) was “did not affect human neutrophil Ca^2+ flux” and the IC50 ([2]; Homo sapiens, Neutrophil) was over 55 µM. For the same molecule, the IC50 ([3]; Homo sapiens, Neutrophil) was over 55 µM and the Cytotoxicity (human neutrophils [4]) was “Nontoxic”.
For `Cc1ccc(C(C)(C)O)cc1` [p-cymen-8-ol], the “Effect … [Ca^2+]i (in words)” value (human neutrophils [5]) is listed as “no effect”.
For (±)-Bornyl acetate, the “Effect on human neutrophil Ca^2+ flux (in words)” value (human neutrophils [1]) was “weak activators”, the EC50 (human neutrophils [1]) was 50.1 ± 11.5 µM and the IC50 [2] was 42.6 ± 9.7 µM. The “Viability of human THP-1 monocytic cells” value [6] was “did not affect the viability”, the IC50 [3] was 19.1 ± 0.1 µM and the IC50 (human neutrophils [7]) was 11.9 ± 1.9 µM.
In the case of `C=CC(C)(O)CCC=C(C)C` (centres unmarked) [linalool], the “Effect … [Ca^2+]i (in words)” value (human neutrophils [5]) is given as “no effect”.
In the case of `C[C@H](CCC(=O)O)[C@H]1CC[C@H]2[C@@H]3CC[C@@H]4C[C@H](O)CC[C@]4(C)[C@H]3C[C@H](O)[C@]12C` [deoxycholic acid], the “Concentrations at which FPR1 is antagonized” value (FPR1) is listed as over 100 µM.
With `CC12CCC(CC1=O)C2(C)C` (stereo not drawn) [(+)-Camphor] the “Effect on human neutrophil Ca^2+ flux (in words)” value (human neutrophils [1]) was “did not affect human neutrophil Ca^2+ flux”, the EC50 (human neutrophils [1]) was over 55 µM and the IC50 [2] was over 55 µM. For the same molecule, the IC50 [3] was over 55 µM.
In the case of `C=CCc1ccc(OC)cc1` [methyl chavicol], the “Effect … [Ca^2+]i (in words)” value (human neutrophils [5]) is listed as “no effect”.
In the case of `C[C@H](CCC(=O)O)[C@H]1CC[C@H]2[C@@H]3[C@H](O)C[C@@H]4C[C@H](O)CC[C@]4(C)[C@H]3CC[C@]12C` [chenodeoxycholic acid], the “Concentrations at which FPR1 is antagonized” value (FPR1) is given as over 100 µM.
With `CC12CCC(CC1)C(C)(C)O2` [1,8-Cineole] the EC50 (human neutrophils [1]; Neutrophil) was over 55 µM, the “Effect on human neutrophil Ca^2+ flux (in words)” value (human neutrophils [1]) was “did not affect human neutrophil Ca^2+ flux” and the IC50 ([2]; Homo sapiens, Neutrophil) was over 55 µM. For the same molecule, the IC50 ([3]; Homo sapiens, Neutrophil) was over 55 µM and the Cytotoxicity (human neutrophils [4]) was “Nontoxic”.
In the case of `CC1=CCC(O)(C(C)C)CC1` (centres unmarked) [terpinen-4-ol], the “Effect … [Ca^2+]i (in words)” value (human neutrophils [5]) is given as “no effect”.
With Farnesene the “Effect on human neutrophil Ca^2+ flux (in words)” value (human neutrophils [1]) was “weak activators”, the EC50 (human neutrophils [1]) was 28.5 ± 2.6 µM and the IC50 [2] was 1.1 ± 0.2 µM. For the same molecule, the “Viability of human THP-1 monocytic cells” value [6] was “did not affect the viability”, the IC50 [3] was 1.4 ± 0.5 µM and the IC50 [8] was 2.6 µM. For the same molecule, the IC50 (human neutrophils [7]) was 3.3 ± 1.4 µM.
In the case of `COc1cc(O)c(C(C)=O)c(OC)c1` [Xanthoxylin], the EC50 (human neutrophils [1]; Neutrophil) is reported as 53.3 ± 5 µM, the “Effect on human neutrophil Ca^2+ flux (in words)” value (human neutrophils [1]) is reported as “weak activators” and the IC50 ([2]; Homo sapiens, Neutrophil) is reported as 27.2 ± 6.6 µM. The “Viability of human THP-1 monocytic cells” value ([6]; 24 h incubation) was “did not affect the viability”, the IC50 ([3]; Homo sapiens, Neutrophil) was 52.7 ± 11.2 µM and the Cytotoxicity (human neutrophils [4]) was “Nontoxic”. For the same molecule, the “Inhibition of fMLF-induced neutrophil chemotaxis IC50” value (human neutrophils [7]) was “did not affect this response”.
For `CC1=CCC(=C(C)C)CC1` [terpinolene], the “Effect … [Ca^2+]i (in words)” value (human neutrophils [5]) is given as “no effect”.
In the case of `C=C1C2CCC(C2)C1(C)C` (centres unmarked) [camphene], the “Effect … [Ca^2+]i (in words)” value (human neutrophils [5]) is listed as “no effect”.
In the case of `C=CCc1ccc(OC)c(OC)c1` [methyl eugenol], the “Effect … [Ca^2+]i (in words)” value (human neutrophils [5]) is given as “no effect”.
In the case of `CC1=CCC2CC1C2(C)C` (stereo not drawn) [α-pinene], the “Effect … [Ca^2+]i (in words)” value (human neutrophils [5]) is listed as “no effect”.
